Source: ChEMBL document CHEMBL6078629, “Targeting Protein Kinase, Membrane-Associated Tyrosine/Threonine 1 (PKMYT1) for Precision Cancer Therapy: From Discovery to Clinical Trial” (J Med Chem, 2024)
One block for each compound: values may come before it.

Assays:
[1] = target: T1, Membrane-associated tyrosine- and threonine-specific cdc2-inhibitory kinase (Homo sapiens, UniProt Q99640); test: Inhibition of PKMYT1 (unknown origin) by TR-FRET analysis
T1 sequence (Q99640 whole entry): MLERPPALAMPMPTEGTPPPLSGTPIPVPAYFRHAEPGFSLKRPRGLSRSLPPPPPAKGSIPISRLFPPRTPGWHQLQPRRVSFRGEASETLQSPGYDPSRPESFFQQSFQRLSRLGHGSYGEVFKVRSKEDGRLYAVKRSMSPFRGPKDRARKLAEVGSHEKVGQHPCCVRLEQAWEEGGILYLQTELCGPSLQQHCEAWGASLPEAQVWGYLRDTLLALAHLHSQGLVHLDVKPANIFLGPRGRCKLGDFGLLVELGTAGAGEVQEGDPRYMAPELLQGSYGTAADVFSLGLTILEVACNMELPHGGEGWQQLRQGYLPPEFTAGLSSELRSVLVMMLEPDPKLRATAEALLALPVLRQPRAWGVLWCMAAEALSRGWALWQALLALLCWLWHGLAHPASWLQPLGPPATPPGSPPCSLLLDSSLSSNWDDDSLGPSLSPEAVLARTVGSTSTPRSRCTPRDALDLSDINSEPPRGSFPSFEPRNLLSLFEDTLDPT

[2] = target: T1, Membrane-associated tyrosine- and threonine-specific cdc2-inhibitory kinase; test: Inhibition of PKMYT1 (unknown origin)
[3] = test system: MIA PaCa-2; test: Antiproliferative activity against human MIA PaCa-2 cells assessed as reduction in cell viability incubated for 48 hrs by MTT assay; format: functional, cell-based; settings: MIA PaCa-2, 48 h
[4] = Clearance in CD-1 mouse at 2 mg/kg, iv by LC-MS/MS analysis; format: ADME, organism-based; settings: in vivo
[5] = Half life in […] at 2 mg/kg, iv; format: ADME, organism-based; settings: in vivo
[6] = test system: HCC1569; test: Antiproliferative activity against human HCC1569 cells assessed as reduction in cell viability incubated for 48 hrs by MTT assay; format: functional, cell-based; settings: HCC1569, 48 h
[7] = target: T1, Membrane-associated tyrosine- and threonine-specific cdc2-inhibitory kinase; test: Binding affinity to PKMYT1 (unknown origin) assessed as dissociation constant
[8] = target: T2, Wee1-like protein kinase (Homo sapiens, UniProt P30291); test: Binding affinity to WEE1 (unknown origin) assessed as dissociation constant
T2 sequence (P30291 whole entry): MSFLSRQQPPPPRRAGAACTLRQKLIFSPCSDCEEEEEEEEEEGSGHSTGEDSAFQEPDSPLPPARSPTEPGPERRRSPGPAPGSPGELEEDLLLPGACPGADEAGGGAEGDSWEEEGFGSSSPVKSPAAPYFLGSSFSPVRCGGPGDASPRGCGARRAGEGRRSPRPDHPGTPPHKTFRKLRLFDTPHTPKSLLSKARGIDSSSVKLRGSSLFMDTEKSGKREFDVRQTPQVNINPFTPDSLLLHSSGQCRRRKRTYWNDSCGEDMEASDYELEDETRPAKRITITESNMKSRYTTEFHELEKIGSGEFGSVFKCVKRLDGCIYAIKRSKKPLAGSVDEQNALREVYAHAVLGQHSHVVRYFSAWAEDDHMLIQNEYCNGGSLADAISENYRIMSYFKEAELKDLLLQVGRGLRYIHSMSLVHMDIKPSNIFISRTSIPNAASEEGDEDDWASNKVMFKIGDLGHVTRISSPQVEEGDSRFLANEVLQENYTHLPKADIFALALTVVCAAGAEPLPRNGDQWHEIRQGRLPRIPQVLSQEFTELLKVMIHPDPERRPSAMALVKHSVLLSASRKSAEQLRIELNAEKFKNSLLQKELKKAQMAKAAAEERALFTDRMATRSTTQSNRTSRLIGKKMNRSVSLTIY

[9] = target: T2, Wee1-like protein kinase; test: Inhibition of WEE1 (unknown origin)
[10] = target: T1, Membrane-associated tyrosine- and threonine-specific cdc2-inhibitory kinase; test: Inhibition of PKMYT1 (unknown origin) extracted from insect cells by TR-FRET analysis; format: cell-free, Insect cell

Structure (SMILES): Cc1cc(Nc2ncc3cc(-c4c(Cl)cccc4Cl)c(=O)n(C)c3n2)ccc1F
- IC50 [1]: 7.2 nM

Structure (SMILES): Cc1nc2c3c(c(N)n(-c4c(C)ccc(O)c4C)c3n1)C(=O)NCC2
- IC50 [1]: ≤ 10 nM

Structure (SMILES): Cc1cc2c(C(N)=O)c(N)n(-c3c(C)c(O)cc(F)c3C)c2nc1C
- IC50 [3]: 4320 nM
- clearance [4]: 94.4 mL/min/kg
- half-life [5]: 0.56 h
- IC50 [2]: ≤ 200 nM

Structure (SMILES): CN(C)C(=O)NCc1cc(Nc2ncc3cc(-c4c(Cl)cccc4Cl)c(=O)n(C)c3n2)nnc1OCCN1CCS(=O)(=O)CC1
- Kd [7]: ≤ 10 nM
- Kd [8]: > 500 nM

Structure (SMILES): Cc1ccc(O)c(C)c1-n1c2ncc(N3CCOCC3)nc2c2c(N)ncnc21
- IC50 [6]: < 5 nM
- IC50 [2]: < 100 nM

Structure (SMILES): COc1ccc(Nc2ncc3cc(-c4c(C)ccc(O)c4C)c(=O)n(C)c3n2)nc1
- Kd [7]: ≤ 10 nM
- Kd [8]: > 500 nM

Structure (SMILES): Cc1ccc(O)c(C)c1-c1cnc2[nH]c(-c3ccc(N4CCN(C)CC4)nc3C)nc2c1
- IC50 [2]: 500 nM

Structure (SMILES): CSc1ncc2c(C(N)=O)c(N)n(-c3c(C)ccc(O)c3C)c2n1
- IC50 [2]: < 100 nM

Structure (SMILES): Cc1ncc(-c2[nH]c3ncc(-c4c(C)ccc(O)c4C)nc3c2Cl)cn1
- IC50 [2]: ≤ 10 nM

Structure (SMILES): Cc1c(O)cccc1-c1c(N)c(C(N)=O)nc2cccc(C#N)c12
- IC50 [2]: < 50 nM

Structure (SMILES): CCOc1cc2ncc(C#N)c(Nc3ccc(F)c(Cl)c3)c2cc1NC(=O)/C=C\CN(C)C
- IC50 [10]: 2900 nM

Structure (SMILES): Cc1ccc(O)c(C)c1C1C(N)=C(C(N)=O)C2C=C(C(C)C)C=NN21 (stereo not given)
- IC50 [2]: < 10 nM

Structure (SMILES): Cc1ccc(O)c(C)c1-n1c(N)c2c3c(ncnc31)C=C(c1cnn(C)c1)NC2=O
- IC50 [6]: 8.6 nM

Structure (SMILES): Cc1ccc(O)c(C)c1-n1c(N)c(C(N)=O)c2cc(NC(N)=O)cnc21
- IC50 [2]: < 20 nM

Structure (SMILES): Cc1cc2c3c(N)ncnc3n(-c3c(C)ccc(O)c3C)c2nc1C
- IC50 [6]: < 5 nM
- IC50 [2]: < 100 nM

Structure (SMILES): COc1ccnc2c(-c3cccc(O)c3C)c(N)c(C(N)=O)cc12
- IC50 [2]: < 50 nM

Structure (SMILES): Cc1ccc(O)c(C)c1-n1c(N)c(C(N)=O)c2c(=O)n(CF)ccc21
- IC50 [1]: 1.5 nM

Structure (SMILES): CC1=CC2C(C(N)=O)=C(N)C(c3c(C)ccc(O)c3C)N2N=C1 (stereo not given)
- IC50 [2]: < 10 nM

Structure (SMILES): Cc1ccc(O)c(C)c1-n1c(N)c2c3c(c(C)cnc31)CCNC2=O
- IC50 [1]: ≤ 10 nM

Results, then the compound that gave them:

- IC50 [2]: < 50 nM
Structure (SMILES): Cc1ccc(O)c(C)c1-c1c(N)c(C(N)=O)nc2cccnc12

- IC50 [6]: 42 nM
Structure (SMILES): Cc1ccc(O)c(C)c1-n1c(N)c2c3c(ncnc31)-c1ccccc1NC2=O

- IC50 [2]: < 50 nM
Structure (SMILES): COc1ccnc2c(-c3c(C)ccc(O)c3C)c(N)c(C(N)=O)cc12

- Kd [7]: ≤ 10 nM
- Kd [8]: > 500 nM
Structure (SMILES): Cc1ccc(O)c(C)c1-c1cc2cnc(Nc3ccccn3)nc2n(C)c1=O

- IC50 [9]: 500 nM
- IC50 [2]: ≤ 10 nM
Structure (SMILES): Cc1ccc(O)c(C)c1-n1nc(-c2nccs2)c(C(N)=O)c1N

- IC50 [2]: < 50 nM
Structure (SMILES): Cc1c(O)cccc1-c1c(N)c(C(N)=O)nc2cccnc12

- IC50 [2]: < 50 nM
Structure (SMILES): Cc1ccc(O)c(C)c1-c1c(N)c(C(N)=O)nc2nccnc12

- Kd [7]: ≤ 10 nM
- Kd [8]: > 500 nM
Structure (SMILES): C[C@@H](O)CC[C@H](C)Oc1ccc(Nc2ncc3cc(-c4c(Cl)cccc4Cl)c(=O)n(C)c3n2)nn1

- IC50 [6]: 22 nM
Structure (SMILES): Cc1nc2c3c(c(N)n(-c4c(C)ccc(O)c4C)c3n1)C(=O)Nc1ccccc1-2

- IC50 [2]: ≤ 10 nM
Structure (SMILES): Cc1ccc(-c2cc3c(Cl)c(-c4c(C)ccc(O)c4C)cnc3[nH]2)cn1

- IC50 [2]: < 50 nM
Structure (SMILES): Cc1c(O)cccc1-c1c(N)c(C(N)=O)cc2nccc(C#N)c12

- IC50 [2]: < 10 nM
Structure (SMILES): CC1=NN2C(C=C1C1CC1)C(C(N)=O)=C(N)C2c1c(C)ccc(O)c1C (stereo not given)

- Kd [7]: ≤ 10 nM
- Kd [8]: > 500 nM
Structure (SMILES): CCn1ccc(Oc2ccc(Nc3ncc4cc(-c5c(Cl)cccc5Cl)c(=O)n(C)c4n3)nc2)n1

- IC50 [1]: 10 nM
- IC50 [9]: > 10000 nM
Structure (SMILES): Cc1ccc(O)c(C)c1-n1c(N)c2c3c(c(C)ncc31)CCNC2=O

- IC50 [2]: < 10 nM
Structure (SMILES): CC1=CC2C(C(N)=O)=C(N)C(c3c(C)ccc(O)c3C)N2N=C1C (stereo not given)

- IC50 [3]: 9220 nM
- clearance [4]: 46.5 mL/min/kg
- half-life [5]: 3.32 h
Structure (SMILES): Cc1cc2c(C(N)=O)c(N)n(-c3c(C)ccc(O)c3C)c2nc1C [LUNRESERTIB]

- IC50 [10]: 7200 nM
Structure (SMILES): COc1cc2ncnc(Nc3cccc(Cl)c3)c2cc1OC [TYRPHOSTIN AG-1478]
